Measured values: patent US20210403443A1, “SUBSTITUTED 1,2,4-OXADIAZOLE, ITS APPLICATION AND A PHARMACEUTICAL PREPARATION COMPRISING IT” (SVENOX PHARMACEUTICALS LLC, priority 2018, published 2021)
In brackets after ≈: the same amount, converted by molar mass. Where two headings read alike, the source gives them in different places.

Legend:
[1] = tested on: Mycobacterium tuberculosis CNCTC My 331/88; assay: microbe, parasite or virus in culture; format: cell-based; details: read-out: Minimum inhibiting concentration
[2] = tested on: M. avium CNCTC My 330/88; assay: MIC micromethod in Sula's medium, atypical strain M. avium; format: cell-based; details: Mycobacterium avium, read-out: Minimum inhibiting concentration
Procedure: The prepared compounds with general formula I were tested by the Institute of Public Health in Ostrava (Department of Bacteriology and Mycology, Laboratory for Diagnostics of Mycobacteria, Partyzanské náměsti 7, 702 00 Ostrava) under in vitro conditions in liquid Sula's medium and their minimum inhibiting concentrations (MIC) were determined as the biological effect of molecules cannot be predicted. The antimycobacterial activity of the prepared compounds was tested on the collection strain Mycobacterium tuberculosis CNCTC My 331/88, collection atypical strains M. avium CNCTC My 330/88 and M. kansasii CNCTC My 235/80. Their activity was compared with the effect of isoniazide (INH), a commonly used medicament.

[3] = tested on: M. kansasii CNCTC My 235/80; assay: microbe, parasite or virus in culture; format: cell-based; details: Mycobacterium kansasii, read-out: Minimum inhibiting concentration
[4] = 336 h, M. avium My 330/88, after 14 days of incubation
[5] = 504 h, M. avium My 330/88, after 21 days of incubation

SMILES | MIC ([1]; 336 h) [µM] | MIC ([1]; 504 h) [µM] | MIC [2, 4] [µM] | MIC [2, 5] [µM] | MIC ([3]; 168 h) [µM] | MIC ([3]; 336 h) [µM] | MIC ([3]; 504 h) [µM] | melting point [°C]
Cc1ccc(-c2noc(CCc3cc([N+](=O)[O-])cc([N+](=O)[O-])c3)n2)cc1 [Compound 12, 5-(3,5-Dinitrophenethyl)-3-(p-tolyl)-1,2,4-oxadiazole] | 2 (≈ 0.709 µg/mL) | 4 (≈ 1.42 µg/mL) | 250 (≈ 88.6 µg/mL) | 250 (≈ 88.6 µg/mL) | 2 (≈ 0.709 µg/mL) | 4 (≈ 1.42 µg/mL) | 4 (≈ 1.42 µg/mL) | 147 to 148
O=[N+]([O-])c1cc(CSc2nc(-c3ccc(Cl)cc3)no2)cc([N+](=O)[O-])c1 [Compound 4] | 0.5 (≈ 0.196 µg/mL) | 1 (≈ 0.393 µg/mL) | 250 (≈ 98.2 µg/mL) | 250 (≈ 98.2 µg/mL) | 1 (≈ 0.393 µg/mL) | 2 (≈ 0.786 µg/mL) | 4 (≈ 1.57 µg/mL) | 
COc1ccc(-c2noc(SCc3cc([N+](=O)[O-])cc([N+](=O)[O-])c3)n2)cc1 [Compound 3] | 0.5 (≈ 0.194 µg/mL) | 0.5 (≈ 0.194 µg/mL) | 250 (≈ 97.1 µg/mL) | 250 (≈ 97.1 µg/mL) | 0.5 (≈ 0.194 µg/mL) | 1 (≈ 0.388 µg/mL) | 2 (≈ 0.777 µg/mL) | 
O=[N+]([O-])c1cc(CSc2nc(-c3ccc(Cl)c(Cl)c3)no2)cc([N+](=O)[O-])c1 [Compound 7] | 1 (≈ 0.427 µg/mL) | 1 (≈ 0.427 µg/mL) | 250 (≈ 107 µg/mL) | 250 (≈ 107 µg/mL) | 1 (≈ 0.427 µg/mL) | 1 (≈ 0.427 µg/mL) | 2 (≈ 0.854 µg/mL) | 176 to 177
O=[N+]([O-])c1cc(CCc2nc(-c3ccc(Cl)cc3)no2)cc([N+](=O)[O-])c1 [Compound 14] | > 32 | > 32 | 250 (≈ 93.7 µg/mL) | 250 (≈ 93.7 µg/mL) | > 32 | > 32 | > 32 | 182 to 183
O=[N+]([O-])c1cc(CCc2nc(-c3ccccc3)no2)cc([N+](=O)[O-])c1 [Compound 11, 5-(3,5-Dinitrophenethyl)-3-phenyl-1,2,4-oxadiazole] | 4 (≈ 1.36 µg/mL) | 4 (≈ 1.36 µg/mL) | 250 (≈ 85.1 µg/mL) | 250 (≈ 85.1 µg/mL) | 2 (≈ 0.681 µg/mL) | 4 (≈ 1.36 µg/mL) | 8 (≈ 2.72 µg/mL) | 120 to 122
COc1ccc(-c2noc(CCc3cc([N+](=O)[O-])cc([N+](=O)[O-])c3)n2)cc1 [Compound 13] | 0.5 (≈ 0.185 µg/mL) | 1 (≈ 0.37 µg/mL) | 250 (≈ 92.6 µg/mL) | 250 (≈ 92.6 µg/mL) | 0.5 (≈ 0.185 µg/mL) | 1 (≈ 0.37 µg/mL) | 2 (≈ 0.741 µg/mL) | 128 to 129
O=[N+]([O-])c1cc(CSc2nc(-c3ccccc3Cl)no2)cc([N+](=O)[O-])c1 [Compound 6] | 0.5 (≈ 0.196 µg/mL) | 1 (≈ 0.393 µg/mL) | 125 (≈ 49.1 µg/mL) | 125 (≈ 49.1 µg/mL) | 8 (≈ 3.14 µg/mL) | 16 (≈ 6.28 µg/mL) | 32 (≈ 12.6 µg/mL) | 158 to 160
O=[N+]([O-])c1cc(CSc2nc(-c3ccc(F)cc3)no2)cc([N+](=O)[O-])c1 [Compound 8] | 0.25 (≈ 0.0941 µg/mL) | 0.5 (≈ 0.188 µg/mL) | 250 (≈ 94.1 µg/mL) | 250 (≈ 94.1 µg/mL) | 0.5 (≈ 0.188 µg/mL) | 1 (≈ 0.376 µg/mL) | 2 (≈ 0.753 µg/mL) | 150 to 152
O=[N+]([O-])c1cc(CCc2nc(-c3ccc(Cl)c(Cl)c3)no2)cc([N+](=O)[O-])c1 [Compound 15] | > 32 | > 32 | 250 (≈ 102 µg/mL) | 250 (≈ 102 µg/mL) | 32 (≈ 13.1 µg/mL) | > 32 | > 32 | 154 to 155
Cc1ccc(-c2noc(SCc3cc([N+](=O)[O-])cc([N+](=O)[O-])c3)n2)cc1 [Compound 2, 5-((3,5-Dinitrobenzyl)sulfanyl)-3-(p-tolyl)-1,2,4-oxadiazole] | 0.5 (≈ 0.186 µg/mL) | 1 (≈ 0.372 µg/mL) | 250 (≈ 93.1 µg/mL) | 250 (≈ 93.1 µg/mL) | 0.5 (≈ 0.186 µg/mL) | 1 (≈ 0.372 µg/mL) | 2 (≈ 0.745 µg/mL) | 150 to 152
O=[N+]([O-])c1cc(CCc2nc(-c3ccc(F)cc3)no2)cc([N+](=O)[O-])c1 [Compound 16] | > 32 | > 32 | 250 (≈ 89.6 µg/mL) | 250 (≈ 89.6 µg/mL) | > 32 | > 32 | > 32 | 169 to 171
O=[N+]([O-])c1cc(CSc2nc(-c3cccc(Cl)c3)no2)cc([N+](=O)[O-])c1 [Compound 5] | 0.5 (≈ 0.196 µg/mL) | 1 (≈ 0.393 µg/mL) | 250 (≈ 98.2 µg/mL) | 250 (≈ 98.2 µg/mL) | 2 (≈ 0.786 µg/mL) | 2 (≈ 0.786 µg/mL) | 4 (≈ 1.57 µg/mL) | 133 to 135
O=[N+]([O-])c1cc(CSc2nc(-c3ccc(Br)cc3)no2)cc([N+](=O)[O-])c1 [Compound 9] | 1 (≈ 0.437 µg/mL) | 1 (≈ 0.437 µg/mL) | 125 (≈ 54.7 µg/mL) | 125 (≈ 54.7 µg/mL) | 1 (≈ 0.437 µg/mL) | 1 (≈ 0.437 µg/mL) | 2 (≈ 0.874 µg/mL) | 175 to 176
O=[N+]([O-])c1cc(CSc2nc(-c3ccccc3)no2)cc([N+](=O)[O-])c1 [Compound 1, 5-((3,5-Dinitrobenzyl)sulfanyl)-3-phenyl-1,2,4-oxadiazole] | 0.5 (≈ 0.179 µg/mL) | 1 (≈ 0.358 µg/mL) | 250 (≈ 89.6 µg/mL) | 250 (≈ 89.6 µg/mL) | 0.5 (≈ 0.179 µg/mL) | 1 (≈ 0.358 µg/mL) | 1 (≈ 0.358 µg/mL) | 135 to 136
